# Test results: the supplement of paper PMC10307832
# What was measured:
# Test in all cases: relative viability (nuclei count vs DMSO), 5 days (fraction); higher = more cells survive
# MLN4924 + Olaparib = compound: NS(=O)(=O)OC[C@@H]1C[C@@H](n2ccc3c(N[C@H]4CCc5ccccc54)ncnc32)C[C@@H]1O [MLN4924] + O=C(c1cc(Cc2n[nH]c(=O)c3ccccc23)ccc1F)N1CCN(C(=O)C2CC2)CC1 [Olaparib] (partner 8 µM)
# In short: (§1)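 Each reported value is a median over duplicate plates. It expresses relative viability: treated-well nuclei count divided by vehicle-well nuclei count. Lung cancer cell lines in 1536-well plates were dosed by pin tool a day after seeding, alone with one drug or with a fixed anchor-drug dose plus five library-drug doses (not always all listed) in √10 steps, and nuclei were counted after 5 days.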
# MLN4924 + Tozasertib = compound: NS(=O)(=O)OC[C@@H]1C[C@@H](n2ccc3c(N[C@H]4CCc5ccccc54)ncnc32)C[C@@H]1O [MLN4924] + Cc1cc(Nc2cc(N3CCN(C)CC3)nc(Sc3ccc(NC(=O)C4CC4)cc3)n2)n[nH]1 [Tozasertib] (partner 0.1 µM)
# In short: as §1
# GSK126 + Bortezomib = compound: CC[C@H](C)N1C=C(C2=C(C=C(C=C21)C3=CN=C(C=C3)N4CCNCC4)C(=O)NCC5=C(C=C(NC5=O)C)C)C [GSK126] + CC(C)C[C@H](NC(=O)[C@H](Cc1ccccc1)NC(=O)c1cnccn1)B(O)O [Bortezomib] (partner 0.002 µM)
# In short: as §1
# MLN4924 + Crizotinib = compound: NS(=O)(=O)OC[C@@H]1C[C@@H](n2ccc3c(N[C@H]4CCc5ccccc54)ncnc32)C[C@@H]1O [MLN4924] + C[C@@H](Oc1cc(-c2cnn(C3CCNCC3)c2)cnc1N)c1c(Cl)ccc(F)c1Cl [Crizotinib] (partner 1 µM)
# In short: as §1
cell line,measurement,setting,value
UMC-11,relative viability,MLN4924 + Olaparib; first compound 0.04 µM,0.408
same,relative viability,MLN4924 + Olaparib; first compound 0.1265 µM,0.246
same,relative viability,MLN4924 + Olaparib; first compound 0.4 µM,0.255
same,relative viability,MLN4924 + Olaparib; first compound 1.265 µM,0.154
same,relative viability,MLN4924 + Olaparib; first compound 4 µM,0.138
same,relative viability,MLN4924 + Tozasertib; first compound 0.04 µM,0.205
same,relative viability,MLN4924 + Tozasertib; first compound 0.1265 µM,0.212
same,relative viability,MLN4924 + Tozasertib; first compound 0.4 µM,0.215
same,relative viability,MLN4924 + Tozasertib; first compound 1.265 µM,0.19
same,relative viability,MLN4924 + Tozasertib; first compound 4 µM,0.184
same,relative viability,GSK126 + Bortezomib; first compound 0.08 µM,0.842
same,relative viability,GSK126 + Bortezomib; first compound 0.253 µM,0.628
same,relative viability,GSK126 + Bortezomib; first compound 0.8 µM,0.747
same,relative viability,GSK126 + Bortezomib; first compound 2.53 µM,0.643
same,relative viability,GSK126 + Bortezomib; first compound 8 µM,0.895
same,relative viability,MLN4924 + Crizotinib; first compound 0.04 µM,0.298
same,relative viability,MLN4924 + Crizotinib; first compound 0.1265 µM,0.184
same,relative viability,MLN4924 + Crizotinib; first compound 0.4 µM,0.234
same,relative viability,MLN4924 + Crizotinib; first compound 1.265 µM,0.0782
same,relative viability,MLN4924 + Crizotinib; first compound 4 µM,0.0855
